Experimental data: patent publication US4241182A, “Fortimicin factors KG1, KG2 and KG3 and processes for production thereof” (Kyowa Hakko Kogyo Co., Ltd., priority 1978, dated 1980)
Values after ≈ are worked out from the molar mass of the structure shown. Where two headings read alike, the source gives them in different places.

How the values were obtained:
[1] = test system: Bacillus subtilis No. 10707; experiment: Activity of isolated substance (units per mg), paper disc method; format: cell-based
Procedure: After the completion of fermentation, the culture liquor is adjusted to pH 2.5 with concentrated sulfuric acid and is stirred for 30 minutes. Thereafter, about 7 kg of a filter aid, Radiolite No. 600 (product of Showa Kagaku Kogyo Co., Ltd., Japan) is added to the culture liquor and the microbial cells are removed by filtration. The filtrate is adjusted to pH 7.5 by the addition of 6 N sodium hydroxide, and then flowed through a column packed with about 20 l of a cation exchange resin, Amberlite IRC-50 (ammonium form). The active principles are adsorbed on the resin, and the effluent is discarded. After the resin is washed with water, elution of the active principles is carried out with 1 N aqueous ammonia. The eluate is subjected to determination of activity by a paper disc method using an agar plate of Bacillus subtilis No. 10707. Fractions showing an activity are combined and concentrated under reduced pressure to about 1 l. The concentrate is adjusted to pH 7 with concentrated hydrochloric acid and then flowed through a column packed with 3 l of Amberlite CG-50 (ammonium form). After the resin is washed with water, elution is carried out with 0.1 N NH4 OH containing 0.1 M NH4 Cl. The eluate is taken in 500 ml fractions. Each fraction is subjected to determination of antibacterial activity against Bacillus subtilis No. 10707 and identification of active component by silica gel thin layer chromatography [Developer: the lower layer of a mixed solvent of chloroform, methanol and concentrated aqueous ammonia (2:1:1 by volume), Coloring agent: ninhydrin]. After the volume of the eluate reaches about 3 l, Fortimicin factors KG1, KG2 and KG3 begin to be eluted. The fractions containing Fortimicin factors KG1, KG2 and KG3 are collected, concentrated under reduced pressure to remove ammonia, neutralized with concentrated hydrochloric acid and flowed through a column packed with 500 ml of Amberlite IRC-50 (ammonium form). After the resin is washed with water, elution is carried out with 0.5 N aqueous ammonia. The active fractions are collected, concentrated under reduced pressure and freeze-dried to obtain 2 g of a white powder. The powder contains in it 250 mg of Fortimicin KG1, 640 mg of Fortimicin KG2 and 330 mg of Fortimicin KG3.
2 g of the crude powder is placed on a silica gel column (Silica gel: produced by Wako Junyaku Co., Ltd., Japan, Diameter of column: about 3 cm). Development is carried out with the lower layer of a mixed solvent of chloroform, methanol and concentrated aqueous ammonia (3:1:1 by volume). The eluate is taken in 20 ml fractions. Each fraction is subjected to the silica gel thin layer chromatography. First, Fortimicin B is eluted and then Fortimicin factors KG2, KG1 and KG3 are eluted in this order. The fractions respectively containing Fortimicin factors KG1, KG2 and KG3 are collected, concentrated under reduced pressure and freeze-dried to obtain 200 mg of Fortimicin KG1, [Activity: 970 u/mg (u: unit)], 500 mg of Fortimicin KG2 (Activity: 970 u/mg) and 250 mg of Fortimicin KG3 (Activity: 950 u/mg) (Activity of each of the purified substances is considered to be 1000 u/mg).

Escherichia coli KY8348 = experiment: Antibacterial spectrum, agar dilution method; format: cell-based; details: for Minimum Inhibitory Concentration: Escherichia coli KY8348 (resistant to streptomycin and gentamicin), pH 8.0
Source text: (§1) Table 3 illustrates the antibacterial spectra of Fortimicin factors KG1, KG2 and KG3 against various microorganisms.
(§2) (Minimum Inhibitory Concentration, μg/ml measured by
(§3) agar dilution method at pH 8.0)

[2] = test system: Staphylococcus aureus ATCC 6538P; experiment: Antibacterial spectrum, agar dilution method; format: cell-based; details: for MIC: Staphylococcus aureus, ATCC6538P, pH 8, Staphylococcus aureus ATCC 6538P, read-out: Minimum Inhibitory Concentration
Source text: as §1, §2, §3

[3] = test system: Pseudomonas aeruginosa BMH#1; experiment: Antibacterial spectrum, agar dilution method; format: cell-based
Source text: as §1, §2, §3

Escherichia coli KY8327 = experiment: Antibacterial spectrum, agar dilution method; format: cell-based; details: for MIC: Escherichia coli, KY8327, pH 8, Escherichia coli KY8327 (resistant to kanamycin, gentamicin and tobramycin), read-out: Minimum Inhibitory Concentration
Source text: as §1, §2, §3

[4] = test system: Proteus vulgaris ATCC 6897; experiment: Antibacterial spectrum, agar dilution method; format: cell-based
Source text: as §1, §2, §3

Escherichia coli KY8302 = experiment: Antibacterial spectrum, agar dilution method; format: cell-based; details: for MIC: Escherichia coli, KY8302, pH 8, Escherichia coli KY8302 (resistant to chloramphenicol, streptomycin, kanamycin, paromomycin, tetracycline and spectinomycin), read-out: Minimum Inhibitory Concentration
Source text: as §1, §2, §3

Escherichia coli ATCC 26 = experiment: Antibacterial spectrum, agar dilution method; format: cell-based
Source text: as §1, §2, §3

[5] = Solubility of the free base; format: physicochemical; details: for solubility in ethanol and acetone / solubility in methanol / solubility in organic solvents such as chloroform, benzene, ethyl acetate, butyl acetate, ethyl ether, butanol, petroleum ether, n-hexane / solubility in water: free base
[6] = test system: Gram-positive and Gram-negative bacteria; experiment: Antibacterial spectrum (summary of Table 3); format: cell-based
Source text: as §1, §2, §3

[7] = test system: certain strains of Escherichia coli which are resistant to various antibiotics; experiment: Antibacterial activity against resistant strains (summary of Table 3); format: cell-based
Source text: as §1, §2, §3

[8] = Acute toxicity, intravenous administration in mice; details: mouse, in vivo
[9] = test system: Salmonella typhosa ATCC 9992; experiment: Antibacterial spectrum, agar dilution method; format: cell-based; details: Salmonella enterica, pH 8, read-out: Minimum Inhibitory Concentration
Source text: as §1, §2, §3

[10] = test system: Bacillus subtilis No. 10707; experiment: Antibacterial spectrum, agar dilution method; format: cell-based; details: pH 8.0, read-out: Minimum Inhibitory Concentration
Source text: as §1, §2, §3

[11] = test system: Klebsiella pneumoniae ATCC 10031; experiment: Antibacterial spectrum, agar dilution method; format: cell-based; details: ATCC10031, pH 8.0, read-out: Minimum Inhibitory Concentration
Source text: as §1, §2, §3

[12] = test system: Shigella sonnei ATCC 9290; experiment: Antibacterial spectrum, agar dilution method; format: cell-based; details: ATCC9290, pH 8.0, read-out: Minimum Inhibitory Concentration
Source text: as §1, §2, §3

[13] = after silica gel chromatography, pure substance considered 1000 u/mg
[14] = Pseudomonas aeruginosa BMH#1, pH 8.0, read-out: Minimum Inhibitory Concentration
[15] = ATCC6897, Proteus vulgaris ATCC 6897, pH 8.0, read-out: Minimum Inhibitory Concentration

| SMILES | Activity [1, 13] [u/mg] | Minimum Inhibitory Concentration (Escherichia coli KY8348) [µg/mL] | MIC [2] [µg/mL] | MIC [3, 14] [µg/mL] | MIC (Escherichia coli KY8327) [µg/mL] | MIC (Escherichia coli KY8302) [µg/mL] | solubility in ethanol and acetone [5] | solubility in methanol [5] | solubility in organic solvents such as chloroform, benzene, ethyl acetate, butyl acetate, ethyl ether, butanol, petroleum ether, n-hexane [5] | solubility in water [5] | solubility in the ordinary organic solvents [5] | antibacterial activity / spectrum (in words) [6] | MIC [4, 15] [µg/mL] | Activity ([1]; sulfate, u: unit) [u/mg] | other results |
| --- | --- | --- | --- | --- | --- | --- | --- | --- | --- | --- | --- | --- | --- | --- | --- |
| CNC1C(O)C(OC2OC(C(C)N)=CCC2N)C(N)C(O)C1OC (stereo not drawn) [Fortimicin KG1] | 970 | 26.1 | 13.1 (≈ 37.8 µM) | > 208 | 26.1 (≈ 75.3 µM) | 26.1 (≈ 75.3 µM) | slightly soluble | soluble | insoluble | readily soluble | poorly soluble | broad antibacterial spectrum | – | – | MIC ([4]; Proteus vulgaris, ATCC6897, pH 8, read-out: Minimum Inhibitory Concentration, Proteus vulgaris ATCC 6897): 26.1 µg/mL (≈ 75.3 µM); MIC (Escherichia coli ATCC 26; Escherichia coli, ATCC26, pH 8, read-out: Minimum Inhibitory Concentration, Escherichia coli ATCC 26): 26.1 µg/mL (≈ 75.3 µM) |
| CNC1C(O)C(OC2OC(C(C)N)=CCC2N)C(N)C(O)C1OC (stereo not drawn) [Fortimicin KG2] | 970 | 166.6 | – | – | – | – | slightly soluble | soluble | insoluble | readily soluble | poorly soluble | broad antibacterial spectrum | 83.3 (≈ 240 µM) | – | Minimum Inhibitory Concentration ([2]; Staphylococcus aureus ATCC 6538P, pH 8.0): 10.5 µg/mL; MIC ([3]; Pseudomonas aeruginosa, pH 8, read-out: Minimum Inhibitory Concentration, Pseudomonas aeruginosa BMH#1): > 167 µg/mL; Minimum Inhibitory Concentration (Escherichia coli KY8327; Escherichia coli KY8327 (resistant to kanamycin, gentamicin and tobramycin), pH 8.0): 20.9 µg/mL; Minimum Inhibitory Concentration (Escherichia coli KY8302; Escherichia coli KY8302 (resistant to chloramphenicol, streptomycin, kanamycin, paromomycin, tetracycline and spectinomycin), pH 8.0): 41.7 µg/mL; Minimum Inhibitory Concentration (Escherichia coli ATCC 26; Escherichia coli ATCC 26, pH 8.0): 41.7 µg/mL |
| COC1C(O)C(N)C(OC2OC(C(C)N)=CCC2N)C(O)C1N(C)C(=O)CN (stereo not drawn) [Fortimicin KG3] | 950 | – | 0.083 (≈ 0.206 µM) | 5.2 (≈ 12.9 µM) | 0.33 (≈ 0.818 µM) | 0.52 (≈ 1.29 µM) | slightly soluble | soluble | insoluble | readily soluble | poorly soluble | strong antibacterial activity against a broad range of Gram-positive and Gram-negative bacteria | 0.66 (≈ 1.64 µM) | – | effectiveness against resistant Escherichia coli (in words) [7]: effective against certain strains of Escherichia coli which are resistant to various antibiotics; LD50 [8]: 225 mg/kg; MIC (Escherichia coli KY8348; Escherichia coli, KY8348, pH 8, Escherichia coli KY8348 (resistant to streptomycin and gentamicin), read-out: Minimum Inhibitory Concentration): 10.4 µg/mL (≈ 25.8 µM); MIC [9]: 0.18 µg/mL (≈ 0.446 µM); MIC [10]: < 0.045 µg/mL; MIC [11]: 0.18 µg/mL (≈ 0.446 µM); MIC (Escherichia coli ATCC 26; ATCC26, Escherichia coli ATCC 26, pH 8.0, read-out: Minimum Inhibitory Concentration): 0.33 µg/mL (≈ 0.818 µM); MIC [12]: 0.7 µg/mL (≈ 1.73 µM) |
| CNC1C(O)C(OC2OC(C(C)N)=CCC2N)C(N)C(O)C1OC (stereo not drawn) [sulfate of Fortimicin KG1] | – | – | – | – | – | – | – | – | – | – | – | – | – | 620 | – |
| CNC1C(O)C(OC2OC(C(C)N)=CCC2N)C(N)C(O)C1OC (stereo not drawn) [sulfate of Fortimicin KG2] | – | – | – | – | – | – | – | – | – | – | – | – | – | 620 | – |
| COC1C(O)C(N)C(OC2OC(C(C)N)=CCC2N)C(O)C1N(C)C(=O)CN (stereo not drawn) [sulfate of Fortimicin KG3] | – | – | – | – | – | – | – | – | – | – | – | – | – | 650 | – |
